Experimental findings from patent US20120264753A1, “NOVEL 1-(BIPHENYL-4-YL-METHYL)-1H-IMIDAZOLE DERIVATIVE AND PHARMACEUTICAL PRODUCT CONTAINING SAME” (KOWA COMPANY, LTD., priority 2009, published 2012) are described below.

Test [1] addresses T1, angiotensin II type 1 receptor (Oryctolagus cuniculus, UniProt P34976).
T1 construct: By using a specimen of isolated rabbit blood vessels; from tissue; host or cells: rabbit (New Zealand White) thoracic aorta ring
T1 sequence (P34976 1-359): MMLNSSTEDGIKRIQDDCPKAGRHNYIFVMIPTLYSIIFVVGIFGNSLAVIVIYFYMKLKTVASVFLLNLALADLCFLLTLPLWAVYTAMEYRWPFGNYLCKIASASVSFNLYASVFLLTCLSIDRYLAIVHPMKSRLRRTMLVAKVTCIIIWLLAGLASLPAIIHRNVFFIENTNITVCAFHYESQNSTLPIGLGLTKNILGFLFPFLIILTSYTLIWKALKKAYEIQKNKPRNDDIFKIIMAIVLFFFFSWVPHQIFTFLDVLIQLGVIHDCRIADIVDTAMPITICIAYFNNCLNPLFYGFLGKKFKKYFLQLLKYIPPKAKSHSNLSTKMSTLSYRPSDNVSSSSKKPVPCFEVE
Put plainly: Angiotensin II antagonistic activity in isolated rabbit blood vessels. The settings on record: angiotensin II (10 nM)-induced contraction of rabbit thoracic aorta ring; read-out: Angiotensin II 50% inhibition concentration. The source says: Angiotensin II Antagonistic Activity in Isolated Rabbit Blood Vessels
By using a specimen of isolated rabbit blood vessels, antagonistic activity of the compounds of the invention against angiotensin II type 1 receptor was estimated from a dose-response curve of angiotensin II-induced blood vessel contraction. Specifically, the specimen of thoracic aorta ring of a rabbit (New Zealand White: male, 2.4 to 3.0 kg) was suspended in a magnus bath filled with Krebs-Henseleite buffer (composition: 118 mM NaCl, 4.7 mM KCl, 2.55 mM CaCl2, 1.18 mM MgSO4, 1.18 mM KH2PO4, 24.88 mM NaHCO3, and 11.1 mM D-glucose), and angiotensin II (10 nM)-induced contraction was obtained in the presence of the compounds of each Example (1 nmol/L to 10 μmol/L). During the measurement, the inside temperature of the magnus bath was maintained at 37° C. and the bath was continuously ventilated with a sufficient amount of mixed gas (95% O2 and 5% CO2). The angiotensin II-induced contraction was converted into a relative value (%) that is based on the angiotensin II (10 nM)-induced contraction in the absence of the compounds of each Example. From the concentration-response curve obtained therefrom, 50% inhibition concentration (IC50 value) was calculated by using SAS Preclinical Package Ver 5.0 (trade name, manufactured by SAS institute Japan Co., Tokyo, Japan), which is a statistical analysis program. As described in the Table 1, it was confirmed that the compounds of the invention have a potent angiotensin II antagonistic activity.

For the next test, the target named is T2, human PPARγ2 (Homo sapiens, UniProt P37231).
T2 construct: the amino acids 182 to 505 of human PPARγ2; expressed in transfected cells; host or cells: COS7 cells (African green monkey kidney)
T2 sequence (P37231 182-505): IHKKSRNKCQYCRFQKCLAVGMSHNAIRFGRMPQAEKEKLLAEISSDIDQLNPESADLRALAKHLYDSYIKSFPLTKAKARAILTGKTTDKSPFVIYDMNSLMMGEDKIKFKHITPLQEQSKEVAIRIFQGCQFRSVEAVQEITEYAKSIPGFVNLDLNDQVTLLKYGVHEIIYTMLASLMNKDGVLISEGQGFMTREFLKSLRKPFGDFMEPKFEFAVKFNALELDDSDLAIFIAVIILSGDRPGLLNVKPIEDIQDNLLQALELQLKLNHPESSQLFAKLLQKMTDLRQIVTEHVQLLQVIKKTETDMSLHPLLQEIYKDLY
The test can be described thus: PPARγ activation activity, Gal4-PPARγ2 LBD luciferase transfection assay in COS7 cells. Type of test: cell-based. Particulars: Gal4-human PPARγ2 LBD chimera, luciferase reporter, 16 hours. The method, then: PPARγ Activation Activity
The agonistic activity of the compounds of the invention on PPARγ was measured based on the transfection assay using COS7 cells (DS Pharma Biomedical Co., Ltd., Osaka, Japan), which are the cell line derived from the kidney of the African green monkey. COS7 cells were cultured under 5% CO2 concentration, and DMEM medium containing 10% fetal bovine serum, glutamic acid, and antibiotics was used as a medium.
As an expression vector, a chimera in which DNA binding domain of Gal4, which is a yeast transcription factor, and ligand binding domain of human PPARγ2 are fused, i.e., a fused product between the amino acids 1 to 147 of Gal4 transcription factor and the amino acids 182 to 505 of human PPARγ2, was used. Furthermore, as a reporter vector, a firefly luciferase containing five copies of Gal4 recognition sequence in the promoter region was used. Plasmid transfection to the cells was performed according to a method which uses jetPEI (trade name, manufactured by Funakoshi Co., Ltd., Tokyo, Japan). Furthermore, β-galactosidase expression vector was employed as an internal standard.
After the transfection of the cells, the medium was replaced with a DMEM medium (containing […]) added with the test compound, and the cells were further cultured for 16 hours. After that, the luciferase activity and β-galactosidase activity in the cell lysis solution were measured.
For the present test, dimethyl sulfoxide (DMSO) was used for dissolution and dilution of the test compounds, and during the cell treatment, the DMSO concentration in DMEM medium (containing 1% serum) was adjusted to 0.1%. The 50% effective concentration of the test compound (EC50, 50% effect concentration) was calculated by using SAS Preclinical Package Ver 5.0 (trade name, manufactured by SAS institute Japan Co., Tokyo, Japan), which is a statistical analysis program.
On the technique in general: Reporter assays use an easily measured gene product as a stand-in for the process of interest.

`CCCCc1nc(-c2ccc(F)cc2)c(C(=O)N2CCCC2)n1Cc1ccc(-c2ccccc2-c2nnn[nH]2)cc1` [Example 19, [1-[{2′-(1H-tetrazol-5-yl)biphenyl-4-yl}methyl]-2-butyl-4-(4-fluorophenyl)-1H-imidazol-5-yl](pyrrolidin-1-yl)methanone]: the IC50 in test [1] was 6.98 µM. On to `CCCCc1nc(-c2ncc(OCC)cn2)c(CO)n1Cc1ccc(-c2ccccc2-c2noc(=O)[nH]2)cc1` [Example 4, 3-[4′-[{2-butyl-4-(5-ethoxypyrimidin-2-yl)-5-(hydroxymethyl)-1H-imidazol-1-yl}methyl]-biphenyl-2-yl]-1,2,4-oxadiazol-5(4H)-one], for which the IC50 in test [1] was 1.04 µM. The 50% effective concentration (EC50) on human PPARγ2 came to 1.48 µM. For `CCCCc1nc(-c2ncc(OCC)cn2)c(C(=O)OC)n1Cc1ccc(-c2ccccc2-c2noc(=O)[nH]2)cc1` [Example 6, methyl 2-butyl-4-(5-ethoxypyrimidin-2-yl)-1-[{2′-(5-oxo-4,5-dihydro-1,2,4-oxadiazol-3-yl)biphenyl-4-yl}methyl]-1H-imidazole-5-carboxylic acid] the same measures were 6.94 µM and 0.56 µM. `CCCCc1nc(-c2ccc(F)cc2)c(C(=O)N(CC)CC)n1Cc1ccc(-c2ccccc2-c2noc(=O)[nH]2)cc1` [Example 12] registered a concentration giving a half-maximal response (EC50) on human PPARγ2 of 2.37 µM.

For the compound `CCCCc1nc(-c2ncc(OCC)cn2)c(C(=O)OC)n1Cc1ccc(-c2ccccc2-c2nnn[nH]2)cc1` [Example 8, methyl 1-[{2′-(1H-tetrazol-5-yl)biphenyl-4-yl}methyl]-2-butyl-4-(5-ethoxypyrimidin-2-yl)-1H-imidazole-5-carboxylic acid], the IC50 in test [1] is 1.01 µM. Also, at human PPARγ2, the concentration for a half-maximal effect (EC50) stood at 3.01 µM. On human PPARγ2, `CCCc1nc2c(C)cc(-c3nc4ccccc4n3C)cc2n1Cc1ccc(-c2ccccc2C(=O)O)cc1` [telmisartan, reference compound] registered an EC50 of 1 to 5 µM.

With `CCCCc1nc(-c2ccc(F)cc2)c(C(N)=O)n1Cc1ccc(-c2ccccc2-c2nnn[nH]2)cc1` [Example 15, 1-[{2′-(1H-tetrazol-5-yl)biphenyl-4-yl}methyl]-2-butyl-4-(4-fluorophenyl)-1H-imidazole-5-carboxamide], in test [1], the IC50 worked out at 0.46 µM. In the case of `CCCCc1nc(-c2ccc(F)cc2)c(C(=O)N(CC)CC)n1Cc1ccc(-c2ccccc2-c2nnn[nH]2)cc1` [Example 17, 1-[{2′-(1H-tetrazol-5-yl)biphenyl-4-yl}methyl]-2-butyl-N,N-diethyl-4-(4-fluorophenyl)-1H-imidazole-5-carboxamide], the EC50 on human PPARγ2 was found to be 3.3 µM. Consider `CCCCc1nc(-c2ccc(F)cc2)c(C(N)=O)n1Cc1ccc(-c2ccccc2-c2noc(=O)[nH]2)cc1` [Example 10, 2-butyl-4-(4-fluorophenyl)-1-({2′-(5-oxo-4,5-dihydro-1,2,4-oxadiazol-3-yl)biphenyl-4-yl}methyl)-1H-imidazole-5-carboxamide], for which the IC50 in test [1] is 0.8 µM. The same compound had an EC50 at human PPARγ2 of 3.43 µM.

As for `CCCCc1nc(-c2ncc(OCC)cn2)c(CO)n1Cc1ccc(-c2ccccc2-c2nnn[nH]2)cc1` [Example 5, [1-[{2′-(1H-tetrazol-5-yl)biphenyl-4-yl}methyl]-2-butyl-4-(5-ethoxypyrimidin-2-yl)-1H-imidazol-5-yl]methanol], the IC50 in test [1] is 0.77 µM.

For the compound `CCCCc1nc(-c2ccc(F)cc2)c(C(=O)N2CCOCC2)n1Cc1ccc(-c2ccccc2-c2nnn[nH]2)cc1` [Example 18, [1-[{2′-(1H-tetrazol-5-yl)biphenyl-4-yl}methyl]-2-butyl-4-(4-fluorophenyl)-1H-imidazol-5-yl](morpholino)methanone], in test [1], the IC50 came to 1.6 µM. For the same compound, the concentration giving a half-maximal response (EC50) at human PPARγ2 is 4.32 µM. Turning to `CCCCc1nc(-c2ccc(F)cc2)c(C(=O)OC)n1Cc1ccc(-c2ccccc2-c2noc(=O)[nH]2)cc1` [Example 2, methyl 2-butyl-4-(4-fluorophenyl)-1-[{2′-(5-oxo-4,5-dihydro-1,2,4-oxadiazol-3-yl)biphenyl-4-yl}methyl]-1H-imidazole-5-carboxylic acid], in test [1], the IC50 came to 4.07 µM. As to `CCCCc1nc(-c2ccc(F)cc2)c(CO)n1Cc1ccc(-c2ccccc2-c2noc(=O)[nH]2)cc1` [Example 1, 3-[4′-[{2-butyl-4-(4-fluorophenyl)-5-(hydroxymethyl)-1H-imidazol-1-yl}methyl]biphenyl-2-yl]-1,2,4-oxadiazol-5(4H)-one], the half-maximal effective concentration (EC50) at human PPARγ2 worked out at 1.52 µM. With `CCCCc1nc(-c2ccc(F)cc2)c(C(=O)NCC)n1Cc1ccc(-c2ccccc2-c2noc(=O)[nH]2)cc1` [Example 11, 2-butyl-N-ethyl-4-(4-fluorophenyl)-1-[{2′-(5-oxo-4,5-dihydro-1,2,4-oxadiazol-3-yl)biphenyl-4-yl}methyl]-1H-imidazole-5-carboxamide], the IC50 in test [1] was 5.69 µM. At human PPARγ2, this compound showed a half-maximal effective concentration (EC50) of 2.28 µM. In the case of `CCCCc1nc(-c2ccc(F)cc2)c(C(=O)NCC)n1Cc1ccc(-c2ccccc2-c2nnn[nH]2)cc1` [Example 16, 1-[{2′-(1H-tetrazol-5-yl)biphenyl-4-yl}methyl]-2-butyl-N-ethyl-4-(4-fluorophenyl)-1H-imidazole-5-carboxamide], the IC50 in test [1] is 0.99 µM.

In general, EC50 refers to the concentration needed to bring the measured effect to its halfway point. The low end stands for higher potency in that assay, the high end for lower potency in that assay.
